Measured values reported in patent US9488664B2, “Diagnostic agent for tumor” (SBI Pharmaceuticals Co., Ltd., priority 2012, dated 2016).

Assay: Side effects (stomach discomfort, nausea) in individuals given 5-ALA
Assay type: in vivo, human
Protocol: A total of eight individuals including seven healthy volunteers in whom no particular abnormality was found by health examination and the like and one volunteer with a malignant tumor, who was given a diagnosis of cancer by a doctor, were studied. The average body weight of the volunteers was 50 kg. The volunteers were instructed to ingest one capsule encapsulating 100 mg of 5-ALA before sleep and collect the first urine at the time of wake-up. Also, they were instructed to ingest, on another day, three capsules, each encapsulating 100 mg of 5-ALA, before sleep and collect the first urine at the time of wake-up.
From the above results, it was shown that administration at a dose of 300 mg can distinguish between not only the presence and absence of a tumor, but also a malignant tumor and a benign tumor. Also, it was shown that a malignant tumor can be detected by administering 100 mg of 5-ALA.
A total of 10 individuals including five healthy volunteers in whom no particular abnormality was found by health examination and the like and five volunteers with a malignant tumor, who were given a diagnosis of cancer by a doctor, ingested 1 g of 5-ALA. […]

NCC(=O)CCC(=O)O [5-ALA, 5-aminolevulinic acid]
stomach discomfort and nausea (100 mg and 300 mg 5-ALA oral, eight individuals): neither stomach discomfort nor nausea was observed | stomach discomfort and nausea (1 g 5-ALA ingested, 10 individuals): some of the volunteers developed stomach discomfort and nausea
